The source of these data is publication PMC8311651, “Controlling Intramolecular Interactions in the Design of Selective, High-Affinity Ligands for the CREBBP Bromodomain” (Journal of Medicinal Chemistry, 2021).

Experiment [1] deals with T1, CREBBP bromodomain (Homo sapiens, UniProt Q92793). Put plainly: BROMOscan (bromoKdELECT), CREBBP. The experiment is classed as binding. Conditions: concentrations of up to 1 μM. The method, then:
(§1) Figure 7 Representation of the bromoKdELECT data for (A) compound 2 and (B) compound 3. Using the BROMOscan platform, Kd values were determined for 12 phylogenetically diverse bromodomains (ATAD2B, BRD2(1), BRD4(1), BRD7, BRD9, BRPF1, CREBBP, EP300, PCAF, SMARCA4, TAF1(2), and TRIM24).
Target sequence in this assay (Q92793 1085-1192 limits assumed): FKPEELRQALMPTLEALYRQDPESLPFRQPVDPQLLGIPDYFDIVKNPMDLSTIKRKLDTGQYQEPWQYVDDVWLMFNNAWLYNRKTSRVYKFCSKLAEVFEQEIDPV

Experiment [2] relates to ATAD2B, BRD2(1), BRD4(1), BRD7, BRD9, BRPF1, PCAF, SMARCA4, TAF1(2), TRIM24 bromodomains. Put plainly: BROMOscan (bromoKdELECT), other bromodomains of the panel. The experiment is classed as binding. Conditions: concentrations of up to 1 μM. As to the method:
as §1

The subject of experiment [3] is c-Myc mRNA in HCT116 cells. As to the kind of experiment: c-Myc mRNA level in HCT116 cells (Q-PCR). The experiment is classed as cell-based, human. The conditions noted are these: HCT116, 10 μM, Q-PCR vs 18S. As to the method:
(A) HCT116 cells were exposed to 2 (10 μM) for the times shown. Western blots were then carried out for the proteins indicated. β-Actin is included as a loading control. (B) HCT116 cells were exposed to 2 (10 μM) for the times indicated followed by mRNA preparation. Q-PCR was then carried out to determine c-Myc mRNA levels compared to the 18S. Data were analyzed using one-way ANOVA. *P < 0.05, **P < 0.01, ***P < 0.001. […] (E) HCT116 cells were exposed to 2 (10 μM) or I-CBP112 for the times indicated. […]
Petri dishes overnight. Following compound treatment, cells were collected, and RNA was
isolated using TRIzol (Invitrogen/Life Technologies) according to the manufacturer’s
instructions. For qPCR expression analysis, cDNA was reverse transcribed from total RNA
using the Verso Kit (Thermo Scientific). qPCR was performed using the SYBR Green PCR
Master Mix Kit (Applied Biosystems) in a 7500 FAST Real-Time PCR thermocycler with
v2.0.5 software (Applied Biosystems). The following sequences of qPCR primers were used: […]
(§2) c-MYC For: […], c-MYC Rev: […],
18S For: […], 18S Rev: […]. The
c-MYC mRNA fold change was calculated using a 2–ΔΔCt method and expressed in relation
to the 18S reference gene. The qPCR graph shown represents the mean ± SD of 3 biological

In the next experiment the test system is H3K27Ac in HCT116 cells. As to the kind of experiment: H3K27 acetylation in HCT116 cells (Western blot). The experiment is classed as cell-based, human. The conditions noted are these: HCT116, 10 μM. As to the method:
(§3) (A) HCT116 cells were exposed to 2 (10 μM) for the times shown. Western blots were then carried out for the proteins indicated. β-Actin is included as a loading control. (B) HCT116 cells were exposed to 2 (10 μM) for the times indicated followed by mRNA preparation. Q-PCR was then carried out to determine c-Myc mRNA levels compared to the 18S. Data were analyzed using one-way ANOVA. *P < 0.05, **P < 0.01, ***P < 0.001. […] (E) HCT116 cells were exposed to 2 (10 μM) or I-CBP112 for the times indicated.
(§4) overnight. Following compound treatment, cells were collected and lysed in urea buffer (9 M
(§5) urea, 75 mM Tris-HCl pH 7.5, 0.15 M β-mercaptoethanol). Proteins (50 µg) were separated
(§6) by gel electrophoresis on a 4-20% Tris-glycine gel and subjected to immunoblotting. The
(§7) 15, Santa Cruz). Secondary antibodies IRDye® 680RD Goat anti-Mouse IgG (H+L) and
(§8) IRDye® 680RD Goat anti-Rabbit IgG (H+L) were from LI-COR Biosciences. The Odyssey
(§9) infrared system (LI-COR) was used to image Western blots. […]
as §2
(§10) 18S For: […], 18S Rev: […]. […]
For orientation: In western blotting, separated proteins are transferred to a membrane and probed.

The test system of the next experiment is H3K18Ac in HCT116 cells. Put plainly: H3K18 acetylation in HCT116 cells (Western blot). Conditions: HCT116, 10 μM. The experiment is classed as cell-based, human. As to the method:
as §3, §4, §5, §6, §7, §8, §9, §2, §10

Experiment [4] has as its target T1, CREBBP bromodomain. As to the kind of experiment: Isothermal titration calorimetry (ITC), CREBBP bromodomain. The experiment is classed as binding. As to the method: Figure S11. The isothermal titration calorimetry (ITC) data for the compounds shown, measured for the CREBBP bromodomain.
(§11) Isothermal Titration Calorimetry. All calorimetric experiments were performed on a MicroCal iTC200 or MicroCal PEAQ-ITC Automated (Malvern) and analyzed with the MicroCal PEAQ-ITC Analysis software (Malvern 1.1.0.1262) using a single binding site model, with the N number set to 1. The first data point was excluded from the analysis.
(§12) BRD4(1) and CREBBP bromodomains were dialyzed at 4 °C overnight in a Slide-A-Lyzer® MINI Dialysis Device (2000 MWCO; Thermo Scientific Life Technologies) into 50 mM HEPES, 150 mM NaCl containing 0.2% DMSO; pH 7.4. Proteins were centrifuged to remove […]
(§13) Protein concentration were determined by measuring
(§14) Technologies Inc.) by using the predicted protein absorbance (CREBBP: ε280: […]
(§15) dissolved as 10 to 50 mM DMSO stock solution and diluted to the required concentration using dialysis buffer. The cell was stirred at 750 rpm, reference power set to 5 μcal/sec and temperature held at 25 °C. After an initial delay of 60 sec, 20 × 2 μL injections (first injection 0.4 μL) were performed with a spacing of 150 sec. Heated dilutions were measured under the same conditions and subtracted for analysis. Small molecule solutions in the calorimetric
Target sequence in this assay (Q92793 1081-1197): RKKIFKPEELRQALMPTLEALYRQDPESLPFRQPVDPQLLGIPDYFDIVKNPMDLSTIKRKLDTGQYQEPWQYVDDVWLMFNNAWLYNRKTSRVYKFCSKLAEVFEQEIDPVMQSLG

In the next experiment the test system is HIF-1α in HCT116 cells. Put plainly: HIF-1α level in HCT116 cells in hypoxia (Western blot). The experiment is classed as cell-based, human. Conditions: HCT116, 10 μM, hypoxia (<0.1% O2).
The subject of another experiment is c-Myc in HCT116 cells. As to the kind of experiment: c-Myc protein level in HCT116 cells (Western blot). The conditions noted are these: HCT116, 10 μM, 6-24 h. The experiment is classed as cell-based, human.
Experiment [5] deals with T2, BRD4(1) (Homo sapiens, UniProt O60885). The conditions noted are these: read-out: BRD4(1) Kd (NMR); ligand-observed 1H NMR, estimated Kd.
Protocol: The reduction of the signal for the 4,5-dihydrobenzodiazepinone methyl group upon
BRD4(1) addition was used to monitor BRD4(1) binding.
The curves were derived from the integral reduction for the signal of the methyl
group located at 4,5-dihydrobenzodiazepinone headgroup upon BRD4(1) addition, detected
by means of Ligand-observed 1H NMR. E Kd values were determined using the one site-
specific binding model least square fit non-linear regression from Graphpad Prism®.
X = concentration of the ligand
Bmax = maximum binding in the same units as Y
Kd = dissociation constant in the same units as X
Ligand-Observed Proton NMR. BRD4(1) bromodomain protein in HEPES containing storage buffers were exchanged into Invitrogen 10 mM Na/K phosphate buffer (0.9% NaCl, pH 7.6) using dialysis. BRD4(1) bromodomain protein concentrations in the phosphate
Samples were prepared to a total sample volume of
160 µL phosphate buffer, with 50 µM compound from 5 mM D6-DMSO stock solutions, 10%
D2O for signal locking and the appropriate amount of protein. After loading into 3 mm
Hildenberg NMR tubes for Bruker Matchä system, samples were briefly centrifuged in a
manual benchtop rotor. Spectra were recorded on a Bruker AVIII 700 MHz spectrometer
with a TXI probe using a standard excitation-sculpting water suppression pulse sequence
For each compound, a compound only sample was recorded as a
reference, followed by samples with protein. Each spectrum was processed with Bruker
Topspinä 3.2, the data were recorded using Microsoft ExcelÒ, then the Kd value was
calculated using the “one site – specific binding; non-linear regression” function using
Graphpad PrismÒ. In Topspin, spectra were phased corrected and calibrated to the residual
DMSO peak, then local baseline corrections were performed (“absf n” function). The integral
of the studied peaks and the DMSO reference peaks were calculated in each spectra for the
determined chemical shift range (constant ranges were used for each studied compound).
Using the ratio of integrals, the integral decrease of the peak of interest with increasing […]
In another experiment the target is T3, EP300 bromodomain (Homo sapiens, UniProt Q09472).
T3 sequence (Q09472 1049-1156 limits assumed): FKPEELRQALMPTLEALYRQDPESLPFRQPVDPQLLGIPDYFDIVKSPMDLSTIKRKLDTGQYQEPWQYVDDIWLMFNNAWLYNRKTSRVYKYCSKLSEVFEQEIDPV
Put plainly: BROMOscan (bromoKdELECT), EP300. The experiment is classed as binding. The conditions noted are these: concentrations of up to 1 μM. As to the method: as §1

Experiment [6] addresses T2, BRD4(1). As to the kind of experiment: Isothermal titration calorimetry (ITC), BRD4(1). The experiment is classed as binding. As to the method: as §11, §12, §13, §14, §15
A general note: Isothermal titration calorimetry measures the heat released or taken up as one component is titrated into another.

Values joined by “and” are separate entries in the source; they are usually repeats but may differ in a detail not shown here. Equal entries are not always repeated. Where two headings read alike, the source gives them in different places.

In the case of `COc1ccc2c(c1)N(CCC/C=C/c1cccc3c1N[C@H](C)CC(=O)N3)CCC2` [Compound 2, (R,E)-6-(5-(7-Methoxy-3,4-dihydroquinolin-1(2H)-yl)pent-1-en-1-yl)-4-methyl-1,3,4,5-tetrahydro-2H-benzo[b][1,4]diazepin-2-one], the Kd – broadly, the concentration at which binding is half-saturated – at CREBBP bromodomain [1] was 200 nM; on CREBBP bromodomain [4] it was 102 ± 10 nM; on BRD4(1) [5], 10300 ± 1890 nM; at EP300 bromodomain, 240 nM and 230 nM. In addition, the “binding to the other bromodomains of the panel (BROMOscan)” value in [2] is “no binding”. Further, the “c-Myc mRNA level” value in experiment [3] was “effects were also observed on c-Myc mRNA”. Also, in the experiment on H3K27Ac in HCT116 cells, the H3K27Ac level entry is on record as “decrease”. Moreover, the “H3K27Ac level relative to t = 0” value is reported as ~30 % of t = 0 in the experiment with H3K27Ac in HCT116 cells (6 h) and ~70 % of t = 0 in the experiment on H3K27Ac in HCT116 cells (24 h). In addition, the H3K18Ac level result in the experiment with H3K18Ac in HCT116 cells is on record as “decrease”. Besides, the “H3K18Ac level relative to t = 0” value in the experiment with H3K18Ac in HCT116 cells (6 h) is given as ~30 % of t = 0; with H3K18Ac in HCT116 cells (24 h) it was ~70 % of t = 0. Further, the “selectivity for CREBBP versus BRD4(1)” value on CREBBP bromodomain [4] (BRD4(1) Kd from NMR) was greater than 100 fold. Further, the “LLE (A – B)” value at CREBBP bromodomain [4] (CREBBP pKd or pIC50 (A) minus cLogD pH7.4 (B)) amounted to 1.92. Also, the “CREBBP pKd” value at CREBBP bromodomain [4] (ITC) amounted to 7.0. Besides, at CREBBP bromodomain [4] (Table 2, BRD4(1) Kd from ITC and NMR), the “CREBBP / BRD4(1) selectivity” value is recorded as 101. Also, the LE at CREBBP bromodomain [4] (from CREBBP pKd or pIC50) is 0.33. Also, in the experiment with HIF-1α in HCT116 cells, the “HIF-1α level in hypoxia” value is on record as “stabilization of HIF-1α above the level observed in hypoxia alone”. For the same molecule, the c-Myc expression entry with c-Myc in HCT116 cells is “reduces expression of c-Myc”. The “BRD4(1) Kd (ITC)” value is “n.b. and n.b.^c” on BRD4(1) [6]; “n.b” at BRD4(1) [6] (csv supplement). The “binding to BRD4(1) by ITC (in words)” value on BRD4(1) [6] is on record as “unable to detect binding”.
